The source of these data is patent US20220267373A1, “SELF-ASSEMBLING PEPTIDES AND HYDROGELS” (UNIVERSITY OF VIRGINIA PATENT FOUNDATION, priority 2018, published 2022).

Data set [1] can be described thus: pH-responsive solubility of nongelling sequences. The format is physicochemical.
Data set [2] can be described thus: Hydrogel formation (gelation) of peptides dissolved in PBS with pH adjustment. The format is physicochemical. The note with it: for gelation as the pH was raised: pH raised from low pH; for hydrogel formation: dissolved in PBS at pH 7.4 and 1.5 wt %. On the procedure:
(§1) Lyophilized peptides were dissolved in PBS to a final concentration of 1.5 or 3 wt. %. The pH of the peptide solutions was adjusted by drop-wise addition of minute amounts of HCl or NaOH. Rheological tests were performed on 50 μL hydrogels 30 minutes after induction of gelation (Anton Par, P25S 25 mm parallel steel plates) with a measuring gap of 250 μm. Storage (G′) and loss (G″) moduli were measured as a function of strain (%) ranging from 0.01 to 100% with a constant frequency of 10 rad/s. Frequency sweeps were performed at angular frequencies ranging from 1 to 100 rad/s at 0.1% strain. For recovery experiments, a step-time procedure was utilized with a series of applied strains at a fixed oscillation frequency of 10 rad/s. Initially, samples were applied with 0.01% strain for 100 s followed immediately by a 100% strain for 50 s, and cycled 5 times.
The secondary structural content of pentapeptide specimens was probed by ATR-FTIR spectroscopy. Samples of the pentapeptides of interest were generated via solid-phase peptide synthesis methods. An alanine (Ala) scan of KYFIL was used to assess each AA's contribution to gelation, wherein individual amino acids (AAs) were sequentially exchanged with Ala or Val. Ala and Val were the substituted residues of choice, as they either eliminate a side-chain beyond the Cβ atom (Ala) or otherwise would be expected to minimally alter the main-chain conformation (Val). As uncharged and relatively compact residues, Ala and Val would not be expected to introduce (confounding) electrostatic or steric effects. All pentapeptides were dissolved in phosphate-buffered saline (PBS) at a concentration of 1.5% or 3% (weight/volume) and adjusted to a pH of 7.4. Gelling peptides (solid lines, FIG. 2) display a strong amide I absorbance at ≈1629 cm^−1, arising from vibrational modes of the amide group; these vibrations, in the region of 1700→1600 cm^−1, correspond to stretching of the C═O and C—N bonds, as well as bending of the N—H. This region of the IR spectrum is particularly sensitive to variations in secondary structural conformation and, in the case of our pentapeptide samples, is indicative of β-sheet hydrogen bonding (FIG. 2, FIG. 12, and FIGS. 13A-B). […] This can be inferred because the amide I region of parallel β-sheets harbors a single predominant signature (near 1630 cm^−1), while antiparallel sheets generally feature a second (minor) peak near ≈1680-1690 cm^−1. […] By correlating our IR observations with variations in AA sequence, it appears that amphiphilicity and a capacity for π-system interactions (e.g., π . . . π stacking and π . . . cation interactions with the benzyl side-chain of the central Phe) play a key role in self-assembly and hydrogel formation (FIG. 2).

In the next data set the test system is MADM OPC line. Kind of data set: Hydrogel cell encapsulation and 3D culture (ATP, DNA, live/dead, immunostaining). The format is cell-based. On the procedure: OPCs were cultured in DMEM with high glucose, 4 mM L-glutamine, 1 mM sodium pyruvate (Life Technologies) with N2 and B27 supplement (Life Technologies), 1% penicillin-streptomycin (Life Technologies), 10 ng/mL mouse PDGFA-AA (eBioscience), and 50 ng/mL human NT3 (Peprotech). Cell media was changed every 2 days, and cells were grown to 90% confluency and passaged using 0.25% trypsin in Dulbecco's phosphate buffered saline (PBS). Cells were cultured in 5% CO2 atmosphere, and 21% O2 at 37° C.
Hydrogels for cell encapsulation were made using 1.5 wt % AYFIL peptide in PBS. 25 μL hydrogels with 5×10^6 cells/mL were made by mixing cells and peptides and then transferred to a cell incubator for 10 minutes at 37° C. at 100% humidity. OPC proliferation media was then added to the hydrogels, and changed every 2 days. Hydrogels were stored at −80° C. in lysis buffer before running ATP or DNA quantification assays. For quantification, gels were homogenized in lysis buffer using a hand grinder and were measured using the CellTiter-Glo luminescent Cell Viability Assay (Promega, United States) and the QuantiT PicoGreen dsDNA assay (ThermoFisher) according to manufacturer protocols.
After 2 days of culture, gels were fixed in 4% paraformaldehyde for 20 minutes at 4° C. and rinsed with PBS before permeabilizing overnight with 0.3% triton-X in PBS. Hydrogels were rinsed in PBS, and then incubated with 10 μg/mL stock solution of Alexa Fluor 568 Phalloidin (ThermoFisher) in 1% BSA in PBS overnight. 4′,6-diamidino-2-phenylindole (DAPI) was added to stain cell nuclei during the last 20 minutes of incubation. Gels were then washed 4×20 min in PBS and imaged with a Zeiss LSM 780 confocal microscope. 100 μm z-stack images were collected with a z-spacing distance of 1 μm.

Data set [3] in a line: Electron microscopy (TEM, cryo-EM) of nanofiber morphology. The format is physicochemical. As to conditions: for typical fiber / ribbon diameter: 1.5 wt % hydrogels at pH 7.4; for nanostructure morphology (TEM): 1.5 wt % in PBS at pH 7.4. On the procedure: 3.5 μL of peptide hydrogel was placed on a holey carbon grid (Protochips, Inc.). Three washes of deionized water, and three washes of 2% uranyl acetate staining solutions with 2 s blotting between each step was performed. Samples were analyzed on a Tecnai F20 equipped with a 4 k×4 k UltraScan CCD camera. Pitch and length were determined using Fiji (Schindelin, J. et al., Fiji: an open-source platform for biological-image analysis. Nat Methods 2012, 9 (7), 676-682, herein incorporated by reference in its entirety) and the FiberApp software package (Usov, I.; Mezzenga, R., FiberApp: An Open-Source Software for Tracking and Analyzing Polymers, Filaments, Biomacromolecules, and Fibrous Objects. Macromolecules 2015, 48 (5), 1269-1280, herein incorporated by reference in its entirety) was used to compute autocorrelation functions of intensity profiles.

The nature of data set [4]: Rheology: storage modulus (G') from strain sweeps of peptide hydrogels. In kind it is physicochemical. As to conditions: pH 7.4. On the procedure: as §1
A short description of data set [5]: Apparent viscosity versus shear rate (shear-thinning). In kind it is physicochemical.
Data set [6] in a line: Step-strain recovery / thixotropy test of hydrogel. The format is physicochemical. On the procedure:
as §1, with “Initially, samples were applied with 0.01% strain for 100 s followed immediately by a 100% strain for 50 s, and cycled 5 times.” left out

Setting [7] is: 1.5 wt. % hydrogel, thixotropy test, 200% strain (200 s), 400 s recovery, FIG. 21 legend.

Read-outs that look alike come from different tables or passages of the source. Where no end group is shown, it is not given here.

On to KYFIV-NH2 [KYFIV], for which, in data set [1], the “solubility at low pH” value was “soluble” and the “behavior as the pH was raised” value is given as “precipitated as an off-white powder”. Further, the “gelation as the pH was raised” value in data set [2] is on record as “never gelled”.
With KYAIL-NH2 [KYAIL], in data set [1], the “solubility at low pH” value is reported as “soluble” and the “behavior as the pH was raised” value is on record as “precipitated as an off-white powder”. Moreover, the “gelation as the pH was raised” value in data set [2] was “never gelled”.
As to AYFIL-NH2 [AYFIL], in the data set with MADM OPC line, the “viability and growth of OPCs encapsulated in hydrogel” value is “survived and grew”. In addition, the “OPC proliferation (increase in DNA concentration)” value in the data set on MADM OPC line (1.5 wt % hydrogel, 4 days) is “cells proliferate over the course of 4 days”. Further, the “live/dead staining of encapsulated OPCs” value with MADM OPC line (1.5 wt % hydrogel, day 1) is given as “majority of cells remained viable”. Moreover, the “time OPCs remained viable after encapsulation (ATP increase)” value in the data set on MADM OPC line (96 h) is on record as “at least 4 days”. Moreover, the “time of culture to OPC process extension” value in the data set on MADM OPC line (without adhesion peptide sequences or native ECM proteins) was not above 2 days. Further, in data set [3], the “typical fiber / ribbon diameter” value is reported as “≈ 10 nm” and the “nanostructure morphology (TEM)” value was “twisted fibrils”. The hydrogel formation result in data set [2] was “form hydrogels”. In addition, the “storage modulus (G')” value in data set [4] (1.5 wt % hydrogel) was approximately 1900 Pa.
As to KYFIL-CO2H, in data set [2] (pH 7.4), the “hydrogel formation of carboxyl-terminated variant” value is reported as “did not readily form hydrogels”.
With “RGDKYFIL (RGDKYFIL-NH2) [8-mer peptide containing KYFIL]”, the “shear-thinning behavior (apparent viscosity versus shear rate)” value in data set [5] is recorded as “displays shear-thinning behavior”. For the same substance, the “storage modulus (G')” value in data set [4] (1.5 wt % hydrogel) is on record as approximately 100 Pa; in data set [4] (3 wt % hydrogel) it was approximately 1000 Pa.
For KYFIA-NH2 [KYFIA], in data set [1], the “solubility at low pH” value is given as “soluble” and the “behavior as the pH was raised” value was “precipitated as an off-white powder”. Moreover, the “gelation as the pH was raised” value in data set [2] is on record as “never gelled”.
Take “KAFIL (KAFIL-NH2) [pentapeptide, C-terminally amidated, gels at pH>10]”: the “nanostructure morphology (TEM)” value in data set [3] was “spherical aggregates”. For the same substance, in data set [2] (pH>10), the “gelation at high pH” value was “can gel”. Besides, in data set [4] (3 wt % hydrogel), the “storage modulus (G')” value was 200 Pa.
With “KYFAL (KYFAL-NH2) [self-assembling pentapeptide, C-terminally amidated]”, in data set [3], the “typical fiber / ribbon diameter” value is reported as “≈ 10 nm”; the “nanostructure morphology (TEM)” value was “twisted ribbon morphologies, with longer and more infrequent pitch than KYFIL peptides”. Moreover, in data set [2], the hydrogel formation result is “form hydrogels”. Moreover, the “storage modulus (G')” value in data set [4] (3 wt % hydrogel) is 133 Pa.
KYFIL-NH2 [KYFIL]: the “viability and growth of OPCs encapsulated in hydrogel” value in the data set on MADM OPC line (1.5 wt % hydrogel, ATP and DNA concentrations over time) is “poor cell viability”. For the same substance, in data set [3] (1.5 wt % hydrogel, pH 7.4, EM), the twisted ribbon pitch entry is reported as “ca. 132 nm” and the twisted ribbon width entry is reported as “ca. 40 nm”. Also, in data set [3], the “typical fiber / ribbon diameter” value is “≈ 40 nm” and the “nanostructure morphology (TEM)” value is given as “twisted ribbon morphologies”. For the same substance, the “nanostructure morphology (EM) in nongelling conditions” value in data set [3] (1.5 wt %, pH 4.6) is listed as “amorphous peptide aggregates”. The “periodicity of the fibrillar twist” value in data set [3] (visual analysis and autocorrelation function of pixel intensity, TEM) is reported as approximately 120 nm. Moreover, in data set [6] (setting [7]), the “time to recover 90% of initial G'” value was found to be 3.5 min and the “time to recover 96% of initial G'” value amounted to 7 min. For the same substance, the “time to recover gel behavior (G'>G'')” value in data set [6] (following 100% strain) is on record as not above 14 s. For the same substance, in data set [6] (results text (FIG. 21)), the “time to recover 90% of initial G'” value is listed as 3.4 min and the “time to recover 96% of initial G'” value is on record as 7 min. In addition, the hydrogel formation entry in data set [2] is reported as “form hydrogels”. Moreover, in data set [4] (1.5 wt % hydrogel), the “storage modulus (G')” value is recorded as 8000 Pa. Besides, the “storage modulus (G')” value in data set [4] (3 wt % hydrogel) is recorded as 17000 Pa.
